Assay results as given in US8937154B2, “Stabilized therapeutic small helical antiviral peptides” (priority 2006, dated 2015).

Tests used:
[1] = biological target: T1, C-terminal CA (C-CA) of capsid (Human immunodeficiency virus type 1 group M subtype B, UniProt P04591); conditions: estimated, read-out: dissociation constant (Kd); cited from earlier work
T1 construct: targeting the C-terminal CA (C-CA) of capsid

[2] = Circular dichroism, secondary structure in solution; assay type: physicochemical; conditions: 20° C., Tris-HCl buffer pH 8.0, 1-15% acetonitrile
Procedure: We used circular dichroism (CD) to characterize the secondary structure of NYAD-1 and CAI in the uncomplexed state in solution. CD spectra were obtained on a Jasco J-715 Spectropolarimeter (Jasco Inc.) at 20° C. using the standard measurement parameters in Tris-HCl buffer (20 mM Tris, pH 8.0) in the presence of 1-15% (v/v) acetonitrile at a final concentration of 125-500 μM. In all the samples, the final concentrations of peptides and salt were always the same, and the spectra were corrected by subtracting the CD spectra of the appropriate reference solvent. Percent α-helix was calculated from molar ellipticity value at 222 nm.
The CD spectra were measured at 25° C. in 1×PBS in the presence of 1-20% (v/v) acetonitrile at a final concentration of peptide of 100 μM.
We used CD spectroscopy to determine the secondary structure characteristics of the stapled peptide NYAD-36. The corresponding linear peptide, NYAD-41, was used as control.

## ITFEDLLDYYGP [CAI]
[1]
  Kd: ~15 µM
[2]
  secondary structure in solution by CD: random coil structure
